Test [1] relates to PKAc-F64L-S65T-GFP fusion. Kind of test: PKAc-F64L-S65T-GFP redistribution in stably transfected CHO cells (fluorescence microscopy, image analysis). The format is cell-based, murine. The protocol: The catalytic subunit of the murine cAMP dependent protein kinase (PKAc) was fused C-terminally to a F64L-S65T derivative of GFP. The resulting fusion (PKAc-F64L-S65T-GFP) was used for monitoring in vivo the translocation and thereby the activation of PKA.
Untransfected CHO cells were used as the control. […] Expression of GR was maintained with 500 mg G418/ml (Neo marker) and PKAc-F64L-S65T-GFP was maintained with 500 mg Zeocin/ml (Sh ble marker). CHO cells were also simultaneously co-transfected with vectors containing the PKAc-F64L-S65T-GFP fusion and the human a2a adrenoceptor (hARa2a).
For fluorescence microscopy, cells were allowed to adhere to Lab-Tek chambered cover-glasses (Nalge Nunc Int., Naperville, Ill., USA) for at least 24 hours and cultured to about 80% confluence. Prior to experiments, the cells were cultured over night without selection pressure in HAM F-12 medium with glutamax (Life Technologies), 100 mg penicillin-streptomycin mixture ml^−1 and 0.3% FBS. This medium has low autofluorescence enabling fluorescence microscopy of cells straight from the incubator.
The cells were illuminated with a 100 W HBO arc lamp.
Method 1: Stepwise Procedure for Quantitation of Translocation of PKA:
3. The image histogram, i.e., the frequency of occurrence of each intensity value in the image, was calculated.
4. A smoothed, second derivative of the histogram was calculated and the second zero is determined. […]
5. The value determined in step 4 was subtracted from the image. […]
6. The variance (square of the standard deviation) of the remaining pixel values was determined. […]
Method 2: Alternative Method for Quantitation of PKA Redistribution:
1. […] The area of each image occupied by the aggregates is calculated by counting pixels in the segmented areas. […] A value of zero (0) indicates no redistribution of fluorescence from the starting condition. […]
As described above, the time it took for a response to come to completion was dependent on the forskolin dose (FIG. 5) In addition the degree of responses was also dose dependent. […] The amount of cAMP produced was measured in an SPA assay. […]

Test [2] concerns EGFP-Erk1 fusion. Kind of test: EGFP-Erk1 nuclear translocation in HEK293 cells. The format is cell-based, human. From the text:
b) The human Erk1 gene (GenBank Accession number: X60188) was amplified using PCR according to standard protocols with primers Erk1-top (SEQ ID NO:9) and Erk1-bottom/+stop (SEQ ID NO:10). The PCR product was digested with restriction enzymes EcoR1 and BamH1, and ligated into pEGFP-C1 (Clontech, Palo Alto; GenBank Accession number U55763) digested with EcoR1 and BamH1. This produces an EGFP-Erk1 fusion (SEQ ID NO:38 &39) under the control of a CMV promoter.
The plasmid containing the EGFP-Erk1 fusion was transfected into HEK293 cells employing the FUGENE transfection reagent (Boehringer Mannheim). Prior to experiments the cells were grown to 80%-90% confluency 8 well chambers in DMEM with 10% FCS. […] Just before starting the experiment, the HAM F-12 was replaced with Hepes buffer following a wash with Hepes buffer. This removes the PD98059 inhibitor; if blocking of MEK1 is still wanted (e.g. in control experiments), the inhibitor is included in the Hepes buffer.
The experimental setup of the microscope was as described in example 1.
60 images were collected with 10 seconds between each, and with the test compound added after image number 10.
Redistribution of GFP fluorescence is expressed in this example as the change in the ratio value between areas in nuclear versus cytoplasmic compartments of the cell. Each time profile is the average of nuclear to cytoplasmic ratios from six cells in each treatment.

Test [3] concerns cAMP. Kind of test: Scintillation proximity assay (SPA) of cAMP produced in CHO cells. The format is cell-based, Chinese hamster. The settings on record: 8 concentrations 0.01-50 mM (n=4), 100 mM IBMX, 10 min. The method, then: 7. Scintillation proximity assay (SPA) for independent quantitation of cAMP:
Cells were cultured in HAM F-12 medium as described above, but in 96-well plates. The medium was exchanged with Ca^2+-HEPES buffer including 100 mM IBMX and the cells were stimulated with different concentrations of forskolin for 10 min. Reactions were stopped with addition of NaOH to 0.14 M and the amount of cAMP produced was measured with the cAMP-SPA kit, RPA538 (Amersham) as described by the manufacturer.
As described above, the time it took for a response to come to completion was dependent on the forskolin dose (FIG. 5) In addition the degree of responses was also dose dependent. To test the PKA-F64L-S65T-GFP fusion protein translocation in a semi high through-put system, CHO cells stably transfected with the PKA-F64L-S65T-GFP fusion was stimulated with buffer and 5 increasing doses of forskolin (n=8). […] In parallel, cells were stimulated with buffer and 8 increasing concentrations of forskolin (n=4) in the range 0.01-50 mM. The amount of cAMP produced was measured in an SPA assay. A steep increase was observed between 1 and 5 mM forskolin coincident with the steepest part of the curve for fusion protein translocation (also FIG. 6)
Background: In a scintillation proximity assay essentially only radioactivity close to the scintillant gives light.

Test [4] has as its target T1, PKA-F64L-S65T-GFP probe / human a2a adrenoceptor (hARa2a) (Homo sapiens, UniProt P08913).
T1 construct: expressed in transfected cells; host or cells: CHO, transient co-transfection
T1 sequence (P08913 1-465): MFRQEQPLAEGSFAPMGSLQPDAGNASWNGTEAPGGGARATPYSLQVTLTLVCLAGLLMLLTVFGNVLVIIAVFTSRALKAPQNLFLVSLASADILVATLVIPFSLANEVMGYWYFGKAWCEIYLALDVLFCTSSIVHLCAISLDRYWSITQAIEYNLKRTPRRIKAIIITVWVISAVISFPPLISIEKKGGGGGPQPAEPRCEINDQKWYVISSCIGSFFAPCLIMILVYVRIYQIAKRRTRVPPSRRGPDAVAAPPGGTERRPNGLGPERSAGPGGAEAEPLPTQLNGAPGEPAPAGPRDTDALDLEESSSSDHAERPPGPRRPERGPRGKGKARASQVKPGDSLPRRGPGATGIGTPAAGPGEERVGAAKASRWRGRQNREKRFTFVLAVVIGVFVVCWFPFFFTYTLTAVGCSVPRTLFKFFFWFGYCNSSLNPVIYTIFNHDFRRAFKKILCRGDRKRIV
Kind of test: PKAc-F64L-S65T-GFP redistribution in transiently transfected CHO cells expressing hARa2a. The format is cell-based, murine. The settings on record: 10 mM norepinephrine after 10 mM forskolin for 7.5 minutes, forskolin still present.
Procedure: Transiently transfected CHO cells expressing hARa2a and the PKA-F64L-S65T-GFP probe were treated with 10 mM forskolin for 7.5 minutes, then, in the continued presence of forskolin, exposed to 10 mM norepinephrine to stimulate the exogenous adrenoreceptors, which couple to a Gi protein, which inhibit adenylate cyclase.

Test [5] deals with actin-binding-domain-EGFP fusion. Kind of test: Actin-binding-domain-EGFP redistribution in CHO cells expressing the human insulin receptor. The format is cell-based. The note with it: insulin stimulation. From the text: The actin binding domain of the human alpha-actinin gene (GenBank Accession number: X15804) was amplified using PCR according to standard protocols with primers ABD-top (SEQ ID NO:90) and ABD-bottom/−stop (SEQ ID NO:91). The PCR product was digested with restriction enzymes Hind3 and BamH1, and ligated into pEGFP-N 1 (Clontech, Palo Alto; GenBank Accession number U55762) digested with Hind3 and BamH1. This produced an actin-binding-domain-EGFP fusion (SEQ ID NO:128 &129) under the control of a CMV promoter.
The resulting plasmid was transfected into CHO cells expressing the human insulin receptor.

On to `CC(C)Cn1c(=O)n(C)c(=O)c2[nH]cnc21` [IBMX], for which the “temporal profile of fusion protein redistribution compared with forskolin” value in test [1] (1 mM dbcAMP, 100 mM IBMX, no adenylate cyclase stimulation) was “slow response”. Moreover, the “return of fusion protein to prestimulatory localization after removal of forskolin” value in test [1] (10 mM forskolin and 100 mM IBMX, then washed 5-8 times with buffer containing 100 mM IBMX) was “did not return to its prestimulatory localization”. For the compound `COc1cccc(-c2cc(=O)c3ccccc3o2)c1N` [PD98059], the “effect on nuclear EGFP-Erk1” value in test [2] (100 micromolar PD98059, 30-60 minutes in plain HAM F-12 without FCS) is “effectively empties the nucleus of EGFP-Erk1”.

With `CCCC(=O)Nc1ncnc2c1ncn2[C@@H]1O[C@@H]2COP(=O)(O)O[C@H]2[C@H]1OC(=O)CCC` [dbcAMP], in test [1] (1, 10 and 50 mM forskolin, dbcAMP at 1 mM), the “translocation of the fusion protein” value was “dramatic translocation of the fusion protein from a punctate distribution to an even distribution throughout the cytoplasm”. Regarding `C=C[C@@]1(C)CC(=O)[C@]2(O)[C@@]3(C)[C@@H](O)CCC(C)(C)[C@@H]3[C@H](O)[C@H](OC(C)=O)[C@@]2(C)O1` [forskolin, Forskolin], the “forskolin concentration range of steep increase in amount of cAMP produced” value in test [3] was in the range of 1 to 5 mM. Regarding `NC[C@H](O)c1ccc(O)c(O)c1` [norepinephrine], in test [4], the “localisation of fluorescence, indicative of a decrease in [cAMP]i” value was “reappearance of fluorescence in the cytoplasmic aggregates”. For “EGF: growth factor added to activate the MAPK pathway and Erk1 nuclear translocation (NSDSECPLSHDGYCLHDGVCMYIEALDKYACNCVVGYIGERCQYRDLKWWELR; UniProt P01133 971-1023, looked up)”, the “redistribution of EGFP-Erk1” value in test [2] (EGF 1-100 nM, within minutes) is reported as “redistribution of EGFP-Erk1 from the cytoplasm into the nucleus”. In addition, the “relationship between concentration and nuclear translocation of EGFP-Erk1” value in test [2] (change in nuclear to cytoplasmic ratio, six cells per treatment) is reported as “dose-dependent relationship”. For the compound insulin, in test [5], the “redistribution of actin binding domain-EGFP probe” value is listed as “redistributed into morphologically distinct membrane-associated structures”.

Values taken from US8058008B2, “Method for extracting quantitative information relating to an influence on a cellular response” (Fisher Bioimage APS, priority 1997, dated 2011).
